Measured values: PubChem BioAssay (NCI)
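Grown in 96-well plates, cells were treated for 48 hours with each compound at five concentrations. Insufficient inhibition: endpoint recorded as highest concentration tested. At the GI50, growth is halved. Definition used: TGI = concentration required for complete inhibition of growth.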

How the values were obtained:
Test in all cases: NCI tumour cell line growth inhibition, 48 h
NCI-H226 lung = test system: NCI-H226 lung
SK-MEL-2 melanoma = test system: SK-MEL-2 melanoma
COLO 205 colon = test system: COLO 205 colon
SR leukemia = test system: SR leukemia
SNB-19 CNS = test system: SNB-19 CNS
HL-60(TB) leukemia = test system: HL-60(TB) leukemia
MDA-MB-435 = test system: MDA-MB-435
OVCAR-4 ovarian = test system: OVCAR-4 ovarian
HS 578T breast = test system: HS 578T breast
UACC-62 melanoma = test system: UACC-62 melanoma
CCRF-CEM leukemia = test system: CCRF-CEM leukemia
MCF7 breast = test system: MCF7 breast
NCI-H522 lung = test system: NCI-H522 lung
NCI/ADR-RES ovarian = test system: NCI/ADR-RES ovarian
M14 melanoma = test system: M14 melanoma
MOLT-4 leukemia = test system: MOLT-4 leukemia
HOP-62 NSCLC = test system: HOP-62 NSCLC
TK-10 renal = test system: TK-10 renal
HCT-116 colon = test system: HCT-116 colon
UACC-257 melanoma = test system: UACC-257 melanoma
MDA-MB-231 breast = test system: MDA-MB-231 breast
HCC-2998 colon = test system: HCC-2998 colon
786-0 renal = test system: 786-0 renal
PC-3 prostate = test system: PC-3 prostate
IGROV1 ovarian = test system: IGROV1 ovarian
DU-145 prostate = test system: DU-145 prostate
OVCAR-8 ovarian = test system: OVCAR-8 ovarian
ACHN renal = test system: ACHN renal
A549 NSCLC = test system: A549 NSCLC
SN12C renal = test system: SN12C renal
SW-620 colon = test system: SW-620 colon
NCI-H460 lung = test system: NCI-H460 lung
BT-549 breast = test system: BT-549 breast
HCT-15 colon = test system: HCT-15 colon
OVCAR-3 ovarian = test system: OVCAR-3 ovarian
HT29 colon = test system: HT29 colon
K-562 leukemia = test system: K-562 leukemia
CAKI-1 renal = test system: CAKI-1 renal
LOX IMVI melanoma = test system: LOX IMVI melanoma
SF-295 CNS = test system: SF-295 CNS
SNB-75 CNS = test system: SNB-75 CNS
SK-MEL-28 melanoma = test system: SK-MEL-28 melanoma
A498 renal = test system: A498 renal
EKVX NSCLC = test system: EKVX NSCLC
SK-OV-3 ovarian = test system: SK-OV-3 ovarian
MALME-3M melanoma = test system: MALME-3M melanoma
OVCAR-5 ovarian = test system: OVCAR-5 ovarian
SF-539 CNS = test system: SF-539 CNS
UO-31 renal = test system: UO-31 renal
KM12 colon = test system: KM12 colon
NCI-H23 lung = test system: NCI-H23 lung
U251 CNS = test system: U251 CNS
SF-268 CNS = test system: SF-268 CNS
RXF 393 renal = test system: RXF 393 renal
SK-MEL-5 melanoma = test system: SK-MEL-5 melanoma
T-47D breast = test system: T-47D breast

## Clc1ccc(CN2COc3c(ccc4cccnc34)C2)cc1Cl
NCI-H226 lung
  GI50: 1280 nM
  TGI: 7120 nM
SK-MEL-2 melanoma
  GI50: 2150 nM
  TGI: 7470 nM
COLO 205 colon
  GI50: 3180 nM
  TGI: 11900 nM
SR leukemia
  GI50: 354 nM
  TGI: 1410 nM
SNB-19 CNS
  GI50: 1980 nM
  TGI: 14300 nM
HL-60(TB) leukemia
  GI50: 297 nM
  TGI: 1300 nM
MDA-MB-435
  GI50: 1960 nM
  TGI: 9180 nM
OVCAR-4 ovarian
  GI50: 531 nM
  TGI: 12900 nM
HS 578T breast
  GI50: 1960 nM
  TGI: 10100 nM
UACC-62 melanoma
  GI50: 584 nM
  TGI: 2410 nM
CCRF-CEM leukemia
  GI50: 578 nM
  TGI: 3690 nM
MCF7 breast
  GI50: 697 nM
  TGI: 3590 nM
NCI-H522 lung
  GI50: 1100 nM
  TGI: 2610 nM
NCI/ADR-RES ovarian
  GI50: 394 nM
  TGI: 2150 nM
M14 melanoma
  GI50: 1260 nM
  TGI: 4740 nM
MOLT-4 leukemia
  GI50: 1550 nM
  TGI: 4890 nM
HOP-62 NSCLC
  GI50: 1490 nM
  TGI: 10900 nM
TK-10 renal
  GI50: 3350 nM
  TGI: 17900 nM
HCT-116 colon
  GI50: 712 nM
  TGI: 2780 nM
UACC-257 melanoma
  GI50: 2530 nM
  TGI: 7890 nM
MDA-MB-231 breast
  GI50: 1320 nM
  TGI: 9920 nM
HCC-2998 colon
  GI50: 2280 nM
  TGI: 8770 nM
786-0 renal
  GI50: 1990 nM
  TGI: 5850 nM
PC-3 prostate
  GI50: 798 nM
  TGI: 11500 nM
IGROV1 ovarian
  GI50: 1050 nM
  TGI: 3610 nM
DU-145 prostate
  GI50: 1770 nM
  TGI: 14800 nM
OVCAR-8 ovarian
  GI50: 730 nM
  TGI: 10200 nM
ACHN renal
  GI50: 525 nM
  TGI: 10600 nM
A549 NSCLC
  GI50: 1640 nM
  TGI: 12900 nM
SN12C renal
  GI50: 2040 nM
  TGI: 13800 nM
SW-620 colon
  GI50: 1280 nM
  TGI: 5390 nM
NCI-H460 lung
  GI50: 532 nM
  TGI: 2520 nM
BT-549 breast
  GI50: 2460 nM
  TGI: 17500 nM
HCT-15 colon
  GI50: 483 nM
  TGI: 15500 nM
OVCAR-3 ovarian
  GI50: 468 nM
  TGI: 12100 nM
HT29 colon
  GI50: 4050 nM
  TGI: 15200 nM
K-562 leukemia
  GI50: 895 nM
  TGI: 2680 nM
CAKI-1 renal
  GI50: 3280 nM
  TGI: 13200 nM
LOX IMVI melanoma
  GI50: 1010 nM
  TGI: 2700 nM
SF-295 CNS
  GI50: 2350 nM
  TGI: 12600 nM
SNB-75 CNS
  GI50: 2360 nM
  TGI: 13400 nM
SK-MEL-28 melanoma
  GI50: 1470 nM
  TGI: 14200 nM
A498 renal
  GI50: 1720 nM
  TGI: 11800 nM
EKVX NSCLC
  GI50: 1310 nM
  TGI: 15200 nM
SK-OV-3 ovarian
  GI50: 1340 nM
  TGI: 13100 nM
MALME-3M melanoma
  GI50: 2230 nM
  TGI: 9160 nM
OVCAR-5 ovarian
  GI50: 1790 nM
  TGI: 15200 nM
SF-539 CNS
  GI50: 1280 nM
  TGI: 3720 nM
UO-31 renal
  GI50: 400 nM
  TGI: 10500 nM
KM12 colon
  GI50: 1200 nM
  TGI: 4490 nM
NCI-H23 lung
  GI50: 2560 nM
  TGI: 14900 nM
U251 CNS
  GI50: 966 nM
  TGI: 13200 nM
SF-268 CNS
  GI50: 1320 nM
  TGI: 12100 nM
RXF 393 renal
  GI50: 1050 nM
  TGI: 4100 nM
SK-MEL-5 melanoma
  GI50: 971 nM
  TGI: 2900 nM
T-47D breast
  GI50: 1680 nM
  TGI: 11300 nM
